Data: patent publication US20100069854A1, “Elastomeric Devices Containing Chlorhexidine/Fatty Acid Salts Made From Fatty Acids of 12 to 18 Carbons” (priority 2008, published 2010)

Tested on: Pseudomonas aeruginosa ATCC 27853
Assay: Basic broth adherence assay on coated polyurethane tubes
Assay type: cell-based
Description: The antimicrobial effectiveness of the coated samples was subjected to different durations of DI water extraction by basic broth adherence assay. For each chlorhexidine/fatty acid salt tested, 3 samples of coated tubing were prepared and assayed. To prepare the inoculum, a culture of Pseudomonas aeruginosa ATCC 27853 was used to challenge the coated polyurethane tubes and controls. The negative control used was a length of uncoated polyurethane tube. The challenge microorganism suspension was prepared as follows: approximately three colonies were removed from a secondary working culture plated on Trypticase Soy Agar (TSA) (BD-Falcon) with 5% sheep's blood and added to 10 ml of Trypticase Soy Broth (TSB). The vial was vortexed for approximately 30 seconds and incubated for 4 hours at 37° C. at 100 rpm. Following incubation, the vial was removed and vortexed. The optical density of the organism suspension was read. The inoculum was then diluted in TSB to a concentration of 5×10^4 colony forming units per milliliter (CFU/mL). This concentration was confirmed by the Miles and Misra drop count method.
The basic broth adherence assay was performed in a 96 well micro titer plate. To each well of the micro titer plate containing either a test article or a control, 900 μl of TSB was added. To this, 100 μl of the adjusted inoculum was added (Note: Due to the 1/10 dilution per well, the starting inoculum concentration of each organism was […] for Pseudomonas aeruginosa). The micro titer plates were then sealed via parafilm® around the edges and wrapped in foil to avoid evaporation of liquid and light contact with the samples. The plates were then placed inside a shaker incubator set at 37° C. and 100 rpm for 24 hours. Incubation at 37° C. then continued until the elapse of 7 days, 14 days, and 21 days, respectively, for each of the 3 samples prepared for each chlorhexidine/fatty acid salt.
At the completion of the respective incubation periods, the samples were rinsed, sonicated, the sonicate was plated and adherence was evaluated. More particularly, following incubation, all samples and controls were dip-rinsed twice in phosphate buffered saline (PBS) to remove the surrounding media. After rinsing, test articles were sonicated in micro titer plate wells containing 1 mL of Dey-Engley (DE) neutralizing broth (Difco). The sonication liquid was then serially diluted, and plated onto the surface of DE neutralizing agar. Plates were incubated at 37° C. for 24 to 48 hours and colonies were counted. Recovery counts were recorded as CFU/mL.

Measured: Log10 reduction of adhered Pseudomonas aeruginosa onto the surface of coated polyurethane tubes

N=C(NCCCCCCNC(=N)NC(=N)Nc1ccc(Cl)cc1)NC(=N)Nc1ccc(Cl)cc1.Nc1ccc(P(=O)(O)O)cc1.Nc1ccc(P(=O)(O)O)cc1 [Chlorhexidine Palmitate, chlorhexidine dipalmitate]
7: 7 days | 14 days | 21 days
